Tests used:
[1] = target: T1, Tobacco CGS (Nicotiana tabacum, UniProt Q9ZPL5); experiment: Micro Scale Thermophoresis (MST) direct binding to CGS; design: 6xHIS (N, cleaved yes); GB1 solubility tag (N, cleaved yes); made in house; host or cells: E. coli BL21; conditions: score 0-5; binding to labelled Tobacco CGS
T1 sequence (Q9ZPL5 79-540): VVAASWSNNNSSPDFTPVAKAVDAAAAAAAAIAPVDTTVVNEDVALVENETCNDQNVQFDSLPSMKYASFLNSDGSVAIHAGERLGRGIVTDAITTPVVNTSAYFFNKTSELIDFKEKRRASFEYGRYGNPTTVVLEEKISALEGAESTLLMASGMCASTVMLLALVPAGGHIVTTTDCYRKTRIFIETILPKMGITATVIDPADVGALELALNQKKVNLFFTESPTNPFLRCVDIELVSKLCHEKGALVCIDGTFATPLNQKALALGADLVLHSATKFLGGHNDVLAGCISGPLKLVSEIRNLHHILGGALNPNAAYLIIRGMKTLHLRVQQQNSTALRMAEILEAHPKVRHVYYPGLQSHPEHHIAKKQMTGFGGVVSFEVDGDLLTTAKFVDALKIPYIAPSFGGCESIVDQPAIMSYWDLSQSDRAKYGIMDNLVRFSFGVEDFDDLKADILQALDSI
Method: The direct binding of the compounds of the embodiments to the CGS was tested by Micro Scale Thermophoresis (MST). In the MST assay, the CGS protein was labelled with a fluorophore, the samples were heated, and changes in fluorescence were measured as a function of the ligand concentration. In the MST assay, similar to the expression and purification described above, the recombinant Tobacco CGS protein was expressed in E. coli BL21 cells and purified to homogeneity. For that particular purpose, the pET-11 vector containing the DNA sequence of Tobacco CGS with an N-terminus […] tag followed by a TEV-cleavable GB1 solubility tag was cloned and transformed into the bacteria cells. Cells were cultured to OD=0.8, and protein expression was induced by the addition of 1 mM IPTG. The cells were cultured for additional 16 hours temperature 25° C. Following cellular lysis, the soluble fraction was passed through the nickel column and the bound HIS-tagged protein was eluted by 300 mM imidazole. Then, the tags […] and GB1 were cleaved in dialysis o/n and the mixtures passed again through the nickel column to separate the CGS from the TEV and HIS-GB1 constructs. As a final step the CGS was run on S75 size exclusion chromatography. Thus, the MST assay was performed to measure the biding of the compounds to the CGS protein. For this purpose, the CGS was labelled with commercially available amine reactive fluorophore (Cat # MO-[…], NanoTemper) according to the manufacture instructions. The MST binding curves were then measured using the Monolith NT.115 apparatus by incubating the labelled protein with the indicated compounds in a dose-response manner.

[2] = system: E. coli lacking the endogenic MetB CGS gene, transformed to express the CGS from Arabidopsis; experiment: Growth of engineered E. coli expressing Arabidopsis CGS in M9 minimal media, with and without methionine; type: cell-based; conditions: for E. coli Assay LE395 (0-5): score 0-5, growth of E. coli with Arabidopsis CGS gene in M9 minimal media; for E. coli specificity (MOA): score, growth with vs without external methionine (40 mg/L)
Method: In addition to the direct binding evaluation, specific assay to test the compounds activity and specificity were also developed. In this assay, E. coli cells, lacking the endogenic MetB CGS gene and transformed to express the CGS from Arabidopsis, were used. These cells were grown on M9 minimal media with and without external methionine supplemented to the cells, in the presence of the compounds of the embodiments. These selected compounds of the embodiments, capable of inhibiting the cell growth on M9, but incapable of affecting the cell growth when supplemented with methionine, were validated as methionine-pathway specific inhibitors.
In this assay, Methionine auxotroph E. coli mutant was transformed with PQE-30 vector containing the Arabidopsis CGS gene as previously described in Yael Hacham et al., Plant Physiol., February 2002, 128(2): 454-462. In order to test the effect of the small molecule inhibitors on the CGS and methionine pathway, growth curves of the E. coli in M9 minimal media with […] were measured with and without the addition of external methionine (40 mg/L) in the presence of variable compound concentrations. E. coli growth curves were measured by following the optical density at 600 nm of bacteria in 96 well-plate placed within Tecan M200 plate reader in orbital shaking mode at 37° C. The slope of each curve was estimated using the ‘linest’ function in Excel.

[3] = system: Roquette; experiment: Roquette assay spray; type: in vivo
[4] = TEV (relative to DMSO)
[5] = system: Arabidopsis thaliana; experiment: Arabidopsis thaliana root growth inhibition; type: in vivo; conditions: 168 h, root length ratio vs DMSO control, 50 μM compound, lower values indicate shorter root, larger effect, read-out: Arabidopsis (relative to DMSO)
Method: Finally, FIGS. 7a-7o are the photos of the Arabidopsis thaliana plants and the inhibition of their roots growth by the compounds of the present invention. These experiments were conducted as follows. Seeds were washed with 70% ethanol for one minute and then with sterile water. Sterilisation was performed with 50% bleaching solution (3%) and 0.2% Triton x-100 for ten minutes followed by a five-time wash with sterile water. The seeds were placed in six well-plates with half Murashige and Skoog medium (MS; Duchefa, Haarlem, Netherlands), containing 1% sucrose (w/v), pH 5.8. The plates with Arabidopsis thaliana seeds were placed at 4° C. for two days and then transferred for seven days to growth chamber (22±2° C.) at day/light cycles of 16/8 h. The plates were placed vertically. In each plate, a control including 0.1% DMSO in the medium was added. The compounds of the present invention were tested for their herbicidal efficiency by diluting 1000 times a 50 mM stock in DMSO leading to a final concentration of 50 μM with 0.1% DMSO.
In Tables 1, 2 and 4 above, Arabidopsis root length was measured after addition of 50-μM compound compared with the negative control (DMSO) treatment. Length values indicate the ratio between non-treated plates ([…]) and the length after the addition of 50 uM of each compound. Lower values indicate shorter root length, and consequently, larger effect.

[6] = target: T1, Tobacco CGS; experiment: Malachite Green Phosphate assay of direct CGS activity; type: biochemical; design: 6xHIS (cleaved yes); GB1 solubility tag (cleaved yes); made in house; host or cells: E. coli BL-21; conditions: 2 h; 50 μM compound, 1 μM CGS, two-hour incubation at 25° C.; read-out: Malachite Green Phosphate Assay (% to DMSO, 50 μM)
Method: As discussed above, the first reaction in methionine biosynthesis in plants is catalyzed by the CGS enzyme. In this reaction, the formation of cystathionine is conducted by the γ-replacement of the phosphoryl substituent of O-phospho-homoserine by cysteine and consecutive release of an orthophosphate group.
Expression of recombinant CGS was done by transforming the pET-11 vector containing the DNA sequence of Tobacco CGS with a 6xHIS tag and GB1 solubility tag followed by TEV cleavage site into BL-21 cells. These cells were cultured at 37° C. and optical density (OD)=0.8 protein at 600 nm, and the expression was induced by addition of 1 mM IPTG for 16 hours at 25° C. The protein was purified to homogeneity onto nickel column and cleaved by o/n dialysis with the TEV protease. A second nickel column was used to separate the cleaved CGS from the TEV and GB1 solubility tag.
The direct activity of CGS was tested using the Malachite Green Phosphate Assay Kit (Sigma-Aldrich, cat # MAK307-1KT). It is a highly sensitive and robust experiment used to measure the release of free orthophosphate group based on quantification of the green-coloured complex formed between Malachite Green, molybdate, and free orthophosphate. The rapid colour formation from the reaction can be conveniently measured on a spectrophotometer via the absorbance at 620 nm.
The assay mixture (100 μl) contained 50 mM MOPS—NaOH (pH 7.5), 150 mM NaCl, 0.1 mM PLP and 1 μM purified CGS. The compounds of the present invention were added at a final concentration of 50 μM and reactions were initiated by adding 2 mM cysteine and 3 mM O-phospho-L-homo-serine. After two-hour incubation at 25° C., 80 μL of each sample were transferred into a new 96 well-plate containing 20 μl of Malachite Green Reagent and incubated for additional 30 min at 25° C. Colour development was measured by a plate reader Tecan M200 (620 nm).

[7] = target: T2, CGS from Nicotiana tabacum (Nicotiana tabacum, UniProt Q9ZPL5); conditions: Steegborn et al. (2001); cited from earlier work
T2 sequence (Q9ZPL5 96-540 limits assumed): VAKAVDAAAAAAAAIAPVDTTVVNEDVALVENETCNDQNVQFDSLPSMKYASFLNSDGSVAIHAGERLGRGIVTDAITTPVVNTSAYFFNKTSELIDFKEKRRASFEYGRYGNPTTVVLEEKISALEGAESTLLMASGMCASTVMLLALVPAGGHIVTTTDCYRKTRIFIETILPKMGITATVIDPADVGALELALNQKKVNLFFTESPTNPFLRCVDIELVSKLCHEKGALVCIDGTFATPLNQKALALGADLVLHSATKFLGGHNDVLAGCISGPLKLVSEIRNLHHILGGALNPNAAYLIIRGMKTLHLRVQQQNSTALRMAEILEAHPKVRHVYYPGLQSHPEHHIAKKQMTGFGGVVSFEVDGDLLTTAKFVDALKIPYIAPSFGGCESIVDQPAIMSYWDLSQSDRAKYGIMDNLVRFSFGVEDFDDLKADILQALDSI

| Structure (SMILES) | MST Tobacco (0-5) [1] | E. coli Assay LE395 (0-5) [2] | E. coli specificity (MOA) [2] | Roquette assay spray (single average) [3] | Roquette assay spray (twice average) [3] | TEV (relative to DMSO) [4] | activity at 50 µM [5] [%] | remaining activity at 50 µM [6] [%] | affinity to the CGS [7] |
| --- | --- | --- | --- | --- | --- | --- | --- | --- | --- |
| CCc1noc(-c2cccc(NC(=O)c3cccc(OC)c3)c2)n1 [IML-216] | 2 | 3 | 5 | 2.0 | 2.0 | 0.57 | 20 |  |  |
| CCc1nc(-c2cncc(NC(=O)c3cccc(OC)c3)c2)no1 [IML-229] |  |  |  |  |  | 0.44 | 10 | 19.6 |  |
| CCc1nc(-c2cc(CC(=O)O)cc(NC(=O)c3cccc(OC)c3)c2)no1 [IML-228] |  |  |  |  |  |  |  | 27.4 |  |
| Cc1cc(O)nc(-c2cccc(NC(=O)c3c(O)cccc3F)c2)n1 [IMS-220] | 3 | 4 | 5 |  |  |  |  | 15.9 |  |
| CCc1nc(-c2cccc(NC(=O)c3cccc(OC)c3)c2)no1 [IML-215] | 2 | 3 | 3 | 1.0 | 2.0 | 0.39 | 6 | 12.8 |  |
| COc1ccc(Cc2nc(-c3cccc(NC(=O)c4cccc(F)c4)c3)no2)cc1 [IML-220] |  | 3 | 5 |  |  |  |  | 10.8 |  |
| CCn1cc(-c2cccc(NC(=O)c3cccc(OC)c3)c2)nn1 [IML-230] |  |  |  |  | 1.0 |  | 29 | 21.7 |  |
| O=C(O)CSc1nc(-c2cccc(Cl)c2)no1 [5-carboxymethylthio-3-(3′-chlorophenyl)-1,2,4-oxadiazol] |  |  |  |  |  |  |  |  | highest affinity to the CGS reported so far |
| O=C(Nc1cccc(-c2csc(Nc3ccc(C(=O)O)c(O)c3)n2)c1)c1ccccc1 [IML-219] | 4 | 1 | 5 |  |  |  |  | 28.3 |  |
| COc1cccc(C(=O)Nc2cccc(-c3cn(Cc4ccccc4)nn3)c2)c1 [IML-69] | 5 |  |  | 1.0 | 2.0 | 0.71 | 22 | 30 |  |
| Cc1cc(O)nc(C(=O)Nc2cccc(-c3nc(C)cc(O)n3)c2)c1 [IML-64] | 4 | 2 | 4 | 1.0 | 2.0 | 0.65 | 20 | 15.2 |  |

Source: patent US11639345B2, “Methionine metabolic pathway inhibitors” (MIGAL—GALILEE RESEARCH INSTITUTE LTD., priority 2018, dated 2023)
